Like-named read-outs stand apart in the source and are kept apart here. Each block holds one molecule with its values, some of them ahead of it.
Columns and labels:
[1] = test system: SJSA-1 osteosarcoma cell line; experiment: qRT-PCR of p53 target gene mRNA in SJSA-1 cells; assay type: cell-based; conditions: for effect on mRNA levels of Bax and Noxa: qRT-PCR
SJSA-1 = experiment: WST cell growth inhibition, SJSA-1; assay type: cell-based
RS4;11 = experiment: WST cell growth inhibition, RS4; assay type: cell-based
LANCaP = experiment: WST cell growth inhibition, LANCaP; assay type: cell-based
HCT-116 = experiment: WST cell growth inhibition, HCT-116; assay type: cell-based
HCT-116 (p53−/−) = experiment: WST cell growth inhibition, HCT-116; assay type: cell-based
human MDM2 protein = human MDM2 protein (Homo sapiens, UniProt Q00987); experiment: fluorescence-polarization competitive binding assay, MDM2 1–118
MDM2 18–118 protein = MDM2 18–118 protein (Homo sapiens, UniProt Q00987); experiment: FP binding assay, truncated MDM2 18–118; conditions: MDM2 18–118 vs 1–118
MDM2 25–118 protein = MDM2 25–118 protein (Homo sapiens, UniProt Q00987); experiment: FP binding assay, truncated MDM2 25–118; conditions: MDM2 25–118 vs 1–118
MDMx = experiment: Biolayer Interferometry binding to MDMx; conditions: at 10 μM
Bcl-2 = experiment: binding to Bcl-2; conditions: at 10 μM
Bcl-xL = experiment: binding to Bcl-xL; conditions: at 10 μM
Mcl-1 = experiment: binding to Mcl-1; conditions: at 10 μM
β-catenin = experiment: binding to β-catenin; conditions: at 10 μM
[2] = stability in cell culture media and two other solutions; assay type: physicochemical; conditions: cell culture media and two other solutions in which some spiro-oxindoles isomerize
[3] = oral pharmacokinetics in mice; assay type: in vivo
[4] = oral pharmacokinetics in rats; assay type: in vivo
[5] = oral pharmacokinetics in dogs; assay type: in vivo
[6] = test system: HCT-116 colon cancer cell line; experiment: qRT-PCR of p53 target gene mRNA in HCT-116 cells; assay type: cell-based
[7] = test system: SJSA-1, HCT-116, RS4;11 and LNCaP cell lines; experiment: Western blotting of p53 activation in four cell lines; assay type: cell-based
SAOS-2 = experiment: WST cell growth inhibition, SAOS-2; assay type: cell-based; conditions: Homo sapiens, SAOS-2, read-out: Cell growth Inhibition (IC50, μM)
PC-3 = experiment: WST cell growth inhibition, PC-3; assay type: cell-based; conditions: Homo sapiens, PC-3, read-out: Cell growth Inhibition (IC50, μM)
SW620 = experiment: WST cell growth inhibition, SW620; assay type: cell-based; conditions: Homo sapiens, SW-620, read-out: Cell growth Inhibition (IC50, μM)
[8] = test system: wild-type p53 cancer cell lines of diverse tumor types; experiment: cell growth inhibition, wild-type p53 lines; assay type: cell-based
[9] = test system: cancer cell lines with a mutated or deleted p53; experiment: cell growth inhibition, mutated or deleted p53 lines; assay type: cell-based; conditions: read-out: IC50 of cell growth inhibition
[10] = test system: SJSA-1 cells with p53 knock-down; assay type: cell-based
SJSA-1 xenograft tumors = experiment: SJSA-1 osteosarcoma xenograft efficacy; assay type: in vivo, SCID mice; conditions: SJSA-1 model
RS4;11 xenograft tumors = experiment: RS4; assay type: in vivo, SCID mice; conditions: RS4;11 model
LNCaP xenograft tumors = experiment: LNCaP prostate cancer xenograft efficacy; assay type: in vivo, SCID mice; conditions: LNCaP model
HCT-116 xenograft tumors = experiment: HCT-116 colon cancer xenograft efficacy; assay type: in vivo, SCID mice; conditions: HCT-116 model
SJSA-1 tumor tissue = experiment: pharmacodynamics, qRT-PCR in SJSA-1 tumor tissue; assay type: in vivo, mice; conditions: single oral dose
[11] = test system: HCT-116 xenograft tumor tissue; experiment: pharmacodynamics, qRT-PCR in HCT-116 tumor tissue; assay type: in vivo, mice; conditions: single oral dose, even at 200 mg/kg
[12] = test system: LNCaP prostate cancer cell line; experiment: flow cytometry cell cycle and apoptosis, LNCaP; assay type: cell-based
[13] = test system: HCT-116 colon cancer cell line; experiment: flow cytometry cell cycle and apoptosis, HCT-116; assay type: cell-based
[14] = mouse, in vivo
[15] = tolerability in efficacy experiments; conditions: mice, all dose-scheduled tests of the efficacy experiments
[16] = read-out: Cell growth Inhibition (IC50), SJSA-1, p53 Wild Type
[17] = read-out: Cell growth Inhibition (IC50), RS4;11, p53 Wild Type
[18] = read-out: Cell growth Inhibition (IC50), LANCaP, p53 Wild Type
[19] = read-out: Cell growth Inhibition (IC50), HCT-116, p53 Wild Type
[20] = Homo sapiens, HCT-116, read-out: Cell growth Inhibition (IC50, μM)

IC50 (SJSA-1; [16]): 1.4 ± 0.2 µM
IC50 (RS4;11; [17]): 1 ± 0.2 µM
IC50 (HCT-116; [19]): 0.95 ± 0.05 µM
IC50 (HCT-116 (p53−/−); read-out: Cell growth Inhibition (IC50), HCT-116 (p53−/−), p53 Deletion): > 10 µM
Compound: CC(C)(C)C[C@H]1N[C@@H](C(=O)NCC[C@H](O)CO)[C@H](c2cccc(Cl)c2)[C@@]12C(=O)Nc1cc(Cl)c(F)cc12.Cl [MI-219]
effect on mRNA levels of Bax and Noxa ([1]; SJSA-1 cells): no significant effect
IC50 (LANCaP; [18]): 1.1 ± 0.1 µM

IC50 (SJSA-1; [16]): 1.3 ± 0.2 µM
IC50 (RS4;11; [17]): 0.57 ± 0.13 µM
IC50 (HCT-116; [19]): 0.86 ± 0.11 µM
Compound: COc1ccc(C2=N[C@@H](c3ccc(Cl)cc3)[C@@H](c3ccc(Cl)cc3)N2C(=O)N2CCNC(=O)C2)c(OC(C)C)c1 [Nutlin-3a]
effect on mRNA levels of Bax and Noxa ([1]; SJSA-1 cells): no significant effect
IC50 (LANCaP; [18]): 1.2 ± 0.4 µM

Compound: CC(C)(C)C[C@@H]1N[C@@H](C(=O)N[C@H]2CC[C@H](O)CC2)[C@H](c2cccc(Cl)c2F)[C@]12C(=O)Nc1cc(Cl)ccc12 [SAR405838]
times more potent than MI-219 in MDM2 binding (human MDM2 protein; comparator MI-219): > 10 times
times more potent than nutlin-3a in MDM2 binding (human MDM2 protein; comparator nutlin-3a): > 50 times
times more potent than the p53 peptide in MDM2 binding (human MDM2 protein; comparator p53 peptide): > 1,000 times
times weaker than with the MDM2 1–118 protein (MDM2 18–118 protein): 10 times
times weaker than with the MDM2 1–118 protein (MDM2 25–118 protein): 25 times
binding to MDMx (MDMx): no appreciable binding
binding to Bcl-2 (Bcl-2): no appreciable binding
binding to Bcl-xL (Bcl-xL): no appreciable binding
binding to Mcl-1 (Mcl-1): no appreciable binding
binding to β-catenin (β-catenin): no appreciable binding
stability in solution [2]: stable
oral pharmacokinetics (PK) [3]: good
oral pharmacokinetics (PK) [4]: good
oral pharmacokinetics (PK) [5]: good
EC50 ([1]; Homo sapiens, SJSA-1, read-out: EC50 of up-regulation of MDM2, p21 and PUMA mRNA): 300 to 600 nM
effect on p53 mRNA ([1]; SJSA-1 cells): no effect
times more potent than MI-219 and nutlin-3a in induction of p21 and MDM2 transcription ([1]; SJSA-1 cells): 5–10 times
induction of PUMA mRNA ([1]; SJSA-1 cells, at 1 μM): 19 fold
effect on mRNA levels of Bax and Noxa ([1]; SJSA-1 cells): no significant effect
effect on p53 mRNA ([6]; HCT-116 cells): no increase
times more potent than MI-219 and nutlin-3a in induction of p21 and MDM2 transcription ([6]; HCT-116 cells): 5–10 times
increase of PUMA mRNA ([6]; HCT-116 cells, at 1 and 3 μM): ~ 3 fold
EC50 ([6]; Homo sapiens, HCT-116, read-out: EC50 of increase of MDM2 and p21 mRNA): 700 nM
times more potent than MI-219 in activation of p53 [7]: > 10 times
IC50 (SJSA-1; Homo sapiens, SJSA-1, read-out: Cell growth Inhibition (IC50, μM)): 0.092 ± 0.019 µM
IC50 (RS4;11; Homo sapiens, RS4-11, read-out: Cell growth Inhibition (IC50, μM)): 0.089 ± 0.027 µM
IC50 (LANCaP; read-out: Cell growth Inhibition (IC50, μM)): 0.27 ± 0.03 µM
IC50 (HCT-116; [20]): 0.2 ± 0.04 µM
IC50 (HCT-116 (p53−/−); [20]): > 20 µM
IC50 (SAOS-2): > 10 µM
IC50 (PC-3): > 10 µM
IC50 (SW620): > 10 µM
times more potent than MI-219 and nutlin-3a in inhibition of cell growth [8]: 5–10 times
IC50 [9]: ≥ 10000 nM
reduction of potency in cell growth inhibition by p53 knock-down [10]: > 20 times
antitumor activity (SJSA-1 xenograft tumors; 10 mg/kg daily oral for 2 weeks): no significant activity
antitumor activity (SJSA-1 xenograft tumors; 30 mg/kg daily oral for 2 weeks): partial tumor regression
antitumor activity (SJSA-1 xenograft tumors; 100 mg/kg daily oral for 2 weeks): rapid, complete and persistent tumor regression
shrinkage of average tumor volume (SJSA-1 xenograft tumors; 100 mg/kg daily oral, after four doses): > 90%
tumor free mice (SJSA-1 xenograft tumors; 100 mg/kg daily, day 55, 31 days after the last dose, of 8 mice): 8 mice
tumor free animals (SJSA-1 xenograft tumors; 100 mg/kg daily, day 73, 2 months after the last dose, 5 out of 8): 63%
antitumor activity (SJSA-1 xenograft tumors; single 100 mg/kg oral dose): effectively inhibits tumor growth
mice with complete tumor regression (SJSA-1 xenograft tumors; single oral dose of 200 mg/kg): 100%
antitumor activity (RS4;11 xenograft tumors; 50 mg/kg daily dosing): partial tumor regression
antitumor activity (RS4;11 xenograft tumors; 100 mg/kg daily dosing): complete tumor regression
antitumor activity (RS4;11 xenograft tumors; 200 mg/kg daily dosing): complete tumor regression
tumor free mice (RS4;11 xenograft tumors; 200 mg/kg, day 71, 25 days after the last dose, of 8 mice): 8 mice
tumor growth inhibition over the vehicle control (LNCaP xenograft tumors; 50 mg/kg daily for 4 weeks): 70%
antitumor activity (LNCaP xenograft tumors; 100 mg/kg daily for 4 weeks): completely inhibits tumor growth
tumor regression (LNCaP xenograft tumors; 200 mg/kg daily for 4 weeks): 80%
tumor growth inhibition over the vehicle control (HCT-116 xenograft tumors; 100 mg/kg daily dosing, end of the treatment): > 80%
antitumor activity (HCT-116 xenograft tumors; 200 mg/kg daily dosing): completely inhibits tumor growth
increase of PUMA mRNA (SJSA-1 tumor tissue): > 40 fold
maximum induction of PUMA mRNA over the control [11]: 3 fold
concentration that effectively inhibits cell cycle progression ([12]; 24 h treatment): ≥ 0.3 µM
apoptosis induction ([12]; even at 10 μM): modest or minimal effect
concentration that effectively inhibits cell cycle progression ([13]; HCT-116, 24 h treatment): ≥ 0.3 µM
apoptosis induction ([13]; HCT-116, even at 10 μM): modest or minimal effect
signs of toxicity [14]: no signs of toxicity
weight loss [15]: less than 10%

Reference: PMC4247201 (Cancer research, 2014)
